We go through 4 compounds from paper PMC3024462 (Journal of medicinal chemistry, 2010).

In one assay the test system is HIV-1LAI. The assay can be described thus: Antiviral activity in MT-2 human T-lymphoid cells exposed to HIV-1LAI, MTT assay. The assay is classed as cell-based. In general terms: Formazan colour is commonly taken as a measure of viable cells.
The next assay has as its system HIV-1MDR/B (X4). It is filed as cell-based. The conditions noted are these: number in parentheses.
The test system of another assay is HIV-1MDR/C (X4). The assay is classed as cell-based. The conditions noted are these: number in parentheses.
The subject of the next assay is HIV-1MDR/G (X4). It is filed as cell-based. The conditions noted are these: number in parentheses.
Another assay has as its system HIV-1MDR/TM (X4). It is filed as cell-based. The conditions noted are these: number in parentheses.
A further assay concerns HIV-1MDR/MM (R5). It is filed as cell-based. The conditions noted are these: number in parentheses.
Another assay concerns HIV-1MDR/JSL (R5). It is filed as cell-based. The conditions noted are these: number in parentheses.
In another assay the target is HIV-1 protease (Human immunodeficiency virus type 1 group M subtype B, UniProt P04585). The assay can be described thus: HIV-1 protease enzyme inhibitory assay. The assay is classed as biochemical. The conditions noted are these: compared to inhibitor 35a.

Consider `COc1ccc(S(=O)(=O)N(CC(C)C)C[C@@H](O)[C@H](Cc2ccccc2)NC(=O)O[C@H]2CCO[C@H]3COC[C@H]32)cc1` [Inhibitor 35f, (4S,4aS,7aR)-Hexahydro-2H-furo[3,4-b]pyran-4-yl ((2S,3R)-3-hydroxy-4-(N-isobutyl-4-methoxyphenylsulfonamido)-1-phenylbutan-2-yl)carbamate], for which the “antiviral activity (in words)” value in the assay with HIV-1LAI (MT-2 cells exposed to HIV-1LAI) was “no antiviral activity”.

Take `COC(=O)N[C@H](C(=O)N[C@@H](Cc1ccccc1)[C@@H](O)CN(Cc1ccc(-c2ccccn2)cc1)NC(=O)[C@@H](NC(=O)OC)C(C)(C)C)C(C)(C)C` [ATV, atazanavir]: the “fold change of EC50 compared to wild-type HIV-1ERS104pre” value worked out at 174 with HIV-1MDR/B (X4); 14 in the assay with HIV-1MDR/C (X4); 7 in the assay with HIV-1MDR/G (X4); 28 with HIV-1MDR/TM (X4); 76 with HIV-1MDR/MM (R5); 109 with HIV-1MDR/JSL (R5).

In the case of `COc1ccc(S(=O)(=O)N(CC(C)C)C[C@@H](O)[C@H](Cc2ccccc2)NC(=O)O[C@@H]2CCO[C@@H]3OCC[C@@H]32)cc1` [Inhibitor 35b, (3aR,4R,7aS)-Hexahydro-2H-furo[2,3-b]pyran-4-yl ((2S,3R)-3-hydroxy-4-(N-isobutyl-4-methoxyphenylsulfonamido)-1-phenylbutan-2-yl)carbamate], the “fold change in Ki (loss of enzyme inhibitory potency)” value at HIV-1 protease is reported as over 20 fold. For the same compound, in the assay with HIV-1LAI (MT-2 cells exposed to HIV-1LAI), the “ID50 (antiviral activity)” value amounted to 19 nM.

As to `COc1ccc(S(=O)(=O)N(CC(C)C)C[C@@H](O)[C@H](Cc2ccccc2)NC(=O)O[C@H]2CCC[C@H]3OCC[C@@H]23)cc1` [Inhibitor 35c, (3aR,4S,7aR)-Octahydrobenzofuran-4-yl (2S,3R)-3-hydroxy-4-(N-isobutyl-4-methoxyphenylsulfonamido)-1-phenylbutan-2-yl carbamate], at HIV-1 protease, the “fold change in Ki (loss of enzyme inhibitory potency)” value is 2 fold. Moreover, in the assay with HIV-1LAI (compared to inhibitor 35a), the “fold decrease in antiviral activity” value was determined as 16 fold.
